One assay has as its system Laodelphax striatellus. Description: Insecticidal Test on Laodelphax striatellus. It counts as in vivo. As to conditions: 192 h, rice plant seedlings dipped for 30 seconds, 3rd-instar larvae, 8 days after the inoculation, read-out: insecticidal efficacy (corrected mortality rate). From the text:
Insecticidal Test on Laodelphax striatellus
The condensed heterocyclic compounds represented by the general formula (1) of the present invention or salts thereof were separately dispersed in water and diluted to 500 ppm. Rice plant seedlings (variety: Nihonbare) were dipped in the agrochemical dispersions for 30 seconds. After air-dried, each seedling was put into a separate glass test tube and inoculated with ten 3rd-instar larvae of Laodelphax striatellus, and then the glass test tubes were capped with cotton plugs. At 8 days after the inoculation, the numbers of surviving larvae and dead larvae were counted, the corrected mortality rate was calculated according to the formula shown below, and the insecticidal efficacy was evaluated according to the criteria shown below. Corrected mortality rate(%)=100×(Survival rate in a non-treatment plot−Survival rate in a treatment plot)/Survival rate in a non-treatment plot [Math. 2] Corrected Mortality Rate A: the corrected mortality rate is 100%. B: the corrected mortality rate is 90 to 99%. C: the corrected mortality rate is 80 to 89%. D: the corrected mortality rate is 50 to 79%.

The next assay relates to Plutella xylostella. Description: Insecticidal Test on Plutella xylostella. It counts as in vivo. As to conditions: 144 h, Chinese cabbage seedlings with laid eggs dipped for about 30 seconds, 25° C., 6 days after the dip treatment, read-out: insecticidal efficacy (corrected mortality rate). The source says:
Insecticidal Test on Plutella xylostella
Adults of Plutella xylostella were released onto Chinese cabbage seedlings and allowed to lay eggs thereon. At 2 days after the release of the adults, the Chinese cabbage seedlings with laid eggs were dipped for about 30 seconds in agrochemical dispersions diluted to 500 ppm, each of which contained a different condensed heterocyclic compound represented by the general formula (1) of the present invention as an active ingredient. After air-dried, the seedlings were kept in a thermostatic chamber at 25° C. At 6 days after the dip treatment, the number of hatched larvae per plot was counted, the mortality rate was calculated according to the formula shown below, and the insecticidal efficacy was evaluated according to the criteria of Test Example 2. This test was conducted in triplicate using 10 adults of Plutella xylostella per plot. Corrected mortality rate(%)=100×(Number of hatched larvae in a non-treatment plot−Number of hatched larvae in a treatment plot)/Number of hatched larvae in a non-treatment plot [Math. 3]

In the case of `CCS(=O)(=O)c1c(-c2nc3cc(C(F)(F)F)cn(C)c-3c2F)nc2cc(C(F)(F)F)ccn12` [Compound 3-14, 2-(3-ethylsulfonyl-7-(trifluoromethyl)imidazo[1,2-a]pyridin-2-yl)-3-fluoro-4-methyl-6-(trifluoromethyl)-4H-pyrrolo[3,2-b]pyridine], the mortality at 500 ppm in the assay with Laodelphax striatellus and in the assay on Plutella xylostella was 100% each time.

For `CCn1cc(C(F)(F)F)cc2nc(-c3ncc(-c4cccc(C(F)(F)F)c4)cc3S(=O)(=O)CC)c(F)c1-2` [Compound 1-16, 2-(5-(3-trifluoromethylphenyl)-3-ethylsulfonyl-pyridin-2-yl)-3-fluoro-4-ethyl-6-trifluoromethyl-4H-pyrrolo[3,2-b]pyridine], the mortality at 500 ppm in the assay on Laodelphax striatellus and in the assay on Plutella xylostella was 100% in each case.

For the molecule `CCn1cc(C(F)(F)F)cc2nc(-c3nc4cc(Br)ccc4cc3S(=O)(=O)CC)c(F)c1-2` [Compound 2-76, 2-(7-bromo-3-ethylsulfonyl-quinolin-2-yl)-3-fluoro-4-ethyl-6-trifluoromethyl-4H-pyrrolo[3,2-b]pyridine], the mortality at 500 ppm in the assay on Laodelphax striatellus and with Plutella xylostella was 100% throughout.

Turning to `CCn1cc(C(F)(F)F)cc2nc(-c3nc4cc(Br)ccc4cc3S(=O)(=O)CC)c(Cl)c1-2` [Compound 2-52, 2-(7-bromo-3-ethylsulfonyl-quinolin-2-yl)-3-chloro-4-ethyl-6-trifluoromethyl-4H-pyrrolo[3,2-b]pyridine], the mortality at 500 ppm in the assay with Laodelphax striatellus and in the assay with Plutella xylostella was 100% in each case.

`CCS(=O)(=O)c1cc(-c2cccc(C(F)(F)F)c2)cnc1-c1nc2cc(C(F)(F)F)cn(C)c-2c1Cl` [Compound 1-13, 2-(5-(3-trifluoromethylphenyl)-3-ethylsulfonyl-pyridin-2-yl)-3-chloro-4-methyl-6-trifluoromethyl-4H-pyrrolo[3,2-b]pyridine]: the mortality at 500 ppm in the assay on Laodelphax striatellus and with Plutella xylostella was 100% in each case.

The term mortality denotes the share of the test organisms that died.

Source of the values: US11083198B2, “4H-pyrrolopyridine compound or salt thereof, agricultural and horticultural insecticide comprising the compound or the salt, and method for using the insecticide” (Nihon Nohyaku Co., Ltd., priority 2016, dated 2021).
